Laboratory results: ChEMBL document CHEMBL1201862, “PubChem BioAssay data set” (2004)
Active and inactive are the calls of the source.

How the values were obtained:
[1] = target: Luciferin 4-monooxygenase (Photinus pyralis, UniProt P08659); test: Counter Screen for Luciferase-based Assay Positives. [Related pubchem assays: 620, 618, 411 ]
HT-1080 = test: cytotoxicity in HT1080 fibrosarcoma cells, cell-based, fluorescence readout (AID 620); format: functional; details: Homo sapiens
Wee1-like protein kinase = Wee1-like protein kinase (Homo sapiens, UniProt P30291); test: G2/M cell cycle arrest in HeLa, late-stage follow-up, mechanism study for Wee1 degradation inhibitor project, FACS, panel member Wee1 Degradation (AID 2088)
Chain of Wee1-like protein kinase (P30291 whole entry): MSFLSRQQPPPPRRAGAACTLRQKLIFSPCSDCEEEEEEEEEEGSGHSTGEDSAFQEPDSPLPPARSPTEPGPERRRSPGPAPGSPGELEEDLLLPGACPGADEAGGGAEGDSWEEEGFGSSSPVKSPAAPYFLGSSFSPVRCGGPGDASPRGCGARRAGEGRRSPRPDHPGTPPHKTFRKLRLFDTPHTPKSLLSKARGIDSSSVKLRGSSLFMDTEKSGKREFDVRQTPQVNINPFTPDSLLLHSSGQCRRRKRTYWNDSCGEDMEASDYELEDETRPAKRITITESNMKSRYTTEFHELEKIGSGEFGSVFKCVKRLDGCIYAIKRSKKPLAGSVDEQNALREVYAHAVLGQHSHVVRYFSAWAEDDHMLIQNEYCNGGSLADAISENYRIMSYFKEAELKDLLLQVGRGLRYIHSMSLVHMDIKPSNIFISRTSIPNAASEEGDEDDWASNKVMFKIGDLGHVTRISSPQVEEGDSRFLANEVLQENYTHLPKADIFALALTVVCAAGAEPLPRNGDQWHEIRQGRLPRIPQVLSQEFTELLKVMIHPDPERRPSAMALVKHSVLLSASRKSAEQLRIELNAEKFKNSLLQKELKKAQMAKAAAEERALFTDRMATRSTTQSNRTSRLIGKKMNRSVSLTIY

[2] = target: G2/mitotic-specific cyclin-B1 (Homo sapiens, UniProt P14635); test: G2/M cell cycle arrest in HeLa, late-stage follow-up, mechanism study for Wee1 degradation inhibitor project, FACS, panel member Cyclin B Degradation (AID 2088)
[3] = microbe, parasite or virus in culture; format: functional; details: Mycobacterium tuberculosis
X-box-binding protein 1 = X-box-binding protein 1 (Homo sapiens, UniProt P17861); format: functional, Cricetulus griseus;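 also: confirmatory dose-response counter-screen serving a CHOP assay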
Chain of X-box-binding protein 1 (P17861 whole entry): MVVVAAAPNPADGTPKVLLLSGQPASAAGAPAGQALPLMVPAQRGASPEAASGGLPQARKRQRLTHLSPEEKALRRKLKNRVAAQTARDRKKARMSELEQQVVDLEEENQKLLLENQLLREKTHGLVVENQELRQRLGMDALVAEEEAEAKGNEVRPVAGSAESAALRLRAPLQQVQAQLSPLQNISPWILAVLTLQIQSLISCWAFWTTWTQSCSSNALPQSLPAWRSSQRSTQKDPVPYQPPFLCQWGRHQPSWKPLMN

HeLa = test: HeLa cell cytotoxicity, dose response, cytotoxicity control, 24 h, cherry-picked samples (AID 504726); format: functional, cell-based; details: Homo sapiens;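 also: potency for cytotoxicity as loss of luminescence signal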
[4] = target: T1, Voltage-gated N-type calcium channel alpha-1B subunit/Amyloid beta A4 precursor protein-binding family A member 1 (Homo sapiens, UniProt Q00975+Q02410); test: disruptors of Mint-PDZ/N-type channel peptide interaction – biochemical, HTRF, SAR follow-up (AID 2489); format: functional
T1 sequence (Q00975 whole entry): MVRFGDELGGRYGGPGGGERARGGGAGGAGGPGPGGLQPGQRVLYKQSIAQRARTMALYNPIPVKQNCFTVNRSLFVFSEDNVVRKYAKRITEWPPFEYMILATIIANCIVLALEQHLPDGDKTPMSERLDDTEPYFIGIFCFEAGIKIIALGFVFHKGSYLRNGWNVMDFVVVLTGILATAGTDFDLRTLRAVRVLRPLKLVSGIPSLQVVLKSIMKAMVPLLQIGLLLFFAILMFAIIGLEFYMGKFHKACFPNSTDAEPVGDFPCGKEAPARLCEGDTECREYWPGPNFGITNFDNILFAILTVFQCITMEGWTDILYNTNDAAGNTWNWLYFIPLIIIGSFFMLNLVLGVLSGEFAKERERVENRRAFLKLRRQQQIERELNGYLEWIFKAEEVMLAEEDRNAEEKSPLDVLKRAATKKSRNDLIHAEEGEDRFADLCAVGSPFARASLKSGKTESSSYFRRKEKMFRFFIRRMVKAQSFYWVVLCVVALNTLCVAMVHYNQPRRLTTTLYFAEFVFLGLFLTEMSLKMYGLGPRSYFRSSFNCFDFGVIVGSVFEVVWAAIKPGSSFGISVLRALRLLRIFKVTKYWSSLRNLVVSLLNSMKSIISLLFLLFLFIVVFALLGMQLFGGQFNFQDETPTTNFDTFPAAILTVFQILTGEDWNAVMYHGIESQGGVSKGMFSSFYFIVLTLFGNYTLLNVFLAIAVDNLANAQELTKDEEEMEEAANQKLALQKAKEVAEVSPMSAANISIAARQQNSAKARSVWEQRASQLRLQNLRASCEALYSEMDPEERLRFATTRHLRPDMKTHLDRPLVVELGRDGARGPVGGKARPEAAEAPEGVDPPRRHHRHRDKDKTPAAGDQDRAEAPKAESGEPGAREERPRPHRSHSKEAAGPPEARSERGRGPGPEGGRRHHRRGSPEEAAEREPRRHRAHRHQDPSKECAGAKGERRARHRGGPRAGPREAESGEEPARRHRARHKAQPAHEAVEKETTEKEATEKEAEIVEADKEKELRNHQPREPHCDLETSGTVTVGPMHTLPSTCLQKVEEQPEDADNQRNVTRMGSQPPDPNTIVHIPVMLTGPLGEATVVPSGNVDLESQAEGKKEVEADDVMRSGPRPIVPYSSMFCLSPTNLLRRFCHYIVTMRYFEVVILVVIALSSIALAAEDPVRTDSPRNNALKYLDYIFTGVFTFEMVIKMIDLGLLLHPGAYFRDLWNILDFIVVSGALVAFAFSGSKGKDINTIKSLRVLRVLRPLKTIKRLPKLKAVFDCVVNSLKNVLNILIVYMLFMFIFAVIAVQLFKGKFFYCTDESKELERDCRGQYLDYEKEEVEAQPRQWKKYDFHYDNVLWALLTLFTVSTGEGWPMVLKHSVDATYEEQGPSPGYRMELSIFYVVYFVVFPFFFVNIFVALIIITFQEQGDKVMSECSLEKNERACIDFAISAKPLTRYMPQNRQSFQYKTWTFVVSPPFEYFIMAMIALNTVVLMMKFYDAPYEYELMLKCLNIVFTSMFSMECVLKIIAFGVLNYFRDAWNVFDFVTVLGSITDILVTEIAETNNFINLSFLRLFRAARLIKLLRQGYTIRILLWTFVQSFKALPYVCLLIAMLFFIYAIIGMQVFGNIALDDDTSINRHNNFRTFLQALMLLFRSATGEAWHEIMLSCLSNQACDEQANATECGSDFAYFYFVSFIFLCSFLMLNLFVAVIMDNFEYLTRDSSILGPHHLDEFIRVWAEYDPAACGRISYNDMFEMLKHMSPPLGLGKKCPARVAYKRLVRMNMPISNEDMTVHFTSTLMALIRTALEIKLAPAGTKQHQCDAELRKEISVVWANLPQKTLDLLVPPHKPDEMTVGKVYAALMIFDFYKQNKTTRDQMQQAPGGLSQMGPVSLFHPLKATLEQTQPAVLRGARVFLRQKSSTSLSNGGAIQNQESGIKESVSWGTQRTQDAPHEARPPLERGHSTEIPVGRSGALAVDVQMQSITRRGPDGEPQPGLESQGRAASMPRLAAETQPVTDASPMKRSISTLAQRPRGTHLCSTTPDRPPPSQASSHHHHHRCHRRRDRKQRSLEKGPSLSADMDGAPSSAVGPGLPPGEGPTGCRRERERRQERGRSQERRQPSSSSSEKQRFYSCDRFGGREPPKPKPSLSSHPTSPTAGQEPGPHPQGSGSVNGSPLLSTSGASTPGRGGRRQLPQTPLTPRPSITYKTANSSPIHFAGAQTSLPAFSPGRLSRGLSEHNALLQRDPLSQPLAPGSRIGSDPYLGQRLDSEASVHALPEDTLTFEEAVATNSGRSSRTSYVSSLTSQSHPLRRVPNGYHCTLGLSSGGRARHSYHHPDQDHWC
T1 sequence (Q02410 whole entry): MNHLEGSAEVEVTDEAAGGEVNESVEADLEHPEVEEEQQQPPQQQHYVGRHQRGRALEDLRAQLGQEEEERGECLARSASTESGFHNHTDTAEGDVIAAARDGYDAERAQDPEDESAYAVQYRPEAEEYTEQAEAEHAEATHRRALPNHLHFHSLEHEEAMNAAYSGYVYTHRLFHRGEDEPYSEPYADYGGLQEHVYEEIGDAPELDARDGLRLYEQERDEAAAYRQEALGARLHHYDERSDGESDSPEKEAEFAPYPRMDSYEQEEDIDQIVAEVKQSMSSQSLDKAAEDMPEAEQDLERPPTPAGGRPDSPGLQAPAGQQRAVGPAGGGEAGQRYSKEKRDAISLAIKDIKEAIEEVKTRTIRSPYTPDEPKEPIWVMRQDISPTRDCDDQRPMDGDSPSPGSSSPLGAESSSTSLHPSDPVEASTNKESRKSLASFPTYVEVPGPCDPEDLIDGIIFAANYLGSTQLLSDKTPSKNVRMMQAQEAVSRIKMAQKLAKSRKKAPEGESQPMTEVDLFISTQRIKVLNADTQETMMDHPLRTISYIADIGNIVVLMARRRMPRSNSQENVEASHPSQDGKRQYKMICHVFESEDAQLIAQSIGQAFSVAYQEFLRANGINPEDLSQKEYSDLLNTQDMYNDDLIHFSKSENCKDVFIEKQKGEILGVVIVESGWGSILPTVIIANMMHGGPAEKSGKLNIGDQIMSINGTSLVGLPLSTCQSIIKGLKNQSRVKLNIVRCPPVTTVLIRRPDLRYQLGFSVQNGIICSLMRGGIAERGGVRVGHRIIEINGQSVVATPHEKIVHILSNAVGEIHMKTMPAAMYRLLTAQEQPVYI

SUMO E1/E2 = SUMO E1/E2 (Homo sapiens, UniProt P63279+Q9UBE0+Q9UBT2); test: SAR analysis of SUMOylation using HTRF in an in-Vitro dose response assay. [Related pubchem assays (depositor defined):AID2006, AID2011, AID2018, AID2069, AID2658]; format: functional
[5] = target: T1, Voltage-gated N-type calcium channel alpha-1B subunit/Amyloid beta A4 precursor protein-binding family A member 1; test: disruptors of Mint-PDZ/N-type channel peptide interaction – biochemical, HTRF, set 2, SAR follow-up (AID 434980); format: functional
[6] = target: T2, Corticotropin-releasing factor receptor 2/Corticotropin-releasing factor-binding protein (Homo sapiens, UniProt P24387+Q13324); test: activators of CRF receptor 2 with binding protein – uHTS hits, confirmation (AID 602473); format: functional; details: read-out: EC50_Mean
T2 sequence (Q13324 whole entry): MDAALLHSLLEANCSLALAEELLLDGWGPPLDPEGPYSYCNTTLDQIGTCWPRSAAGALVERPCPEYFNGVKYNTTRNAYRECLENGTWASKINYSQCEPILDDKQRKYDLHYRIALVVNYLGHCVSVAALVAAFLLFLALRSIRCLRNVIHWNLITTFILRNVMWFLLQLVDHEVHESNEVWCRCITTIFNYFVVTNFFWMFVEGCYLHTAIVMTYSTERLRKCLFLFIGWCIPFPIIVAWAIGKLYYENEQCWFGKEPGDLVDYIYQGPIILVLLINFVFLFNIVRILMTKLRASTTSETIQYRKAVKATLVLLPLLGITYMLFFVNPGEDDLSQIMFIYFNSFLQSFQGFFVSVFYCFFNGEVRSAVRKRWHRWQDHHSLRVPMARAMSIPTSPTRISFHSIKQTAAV
T2 sequence (P24387 whole entry): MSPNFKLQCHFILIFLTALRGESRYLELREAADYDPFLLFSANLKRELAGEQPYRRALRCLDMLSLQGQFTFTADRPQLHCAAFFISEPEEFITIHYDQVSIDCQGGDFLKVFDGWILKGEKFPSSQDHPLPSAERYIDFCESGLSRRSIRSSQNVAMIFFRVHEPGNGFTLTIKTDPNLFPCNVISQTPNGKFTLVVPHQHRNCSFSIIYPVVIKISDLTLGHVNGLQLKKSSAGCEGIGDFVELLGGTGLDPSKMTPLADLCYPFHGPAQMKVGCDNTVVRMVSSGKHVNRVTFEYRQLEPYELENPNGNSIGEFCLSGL

[7] = target: T3, Short transient receptor potential channel 4 (Mus musculus, UniProt Q9QUQ5); test: mouse TRPC4 channel inhibitors, dose response, cell-based, HEK293 TRPC4/mu-opioid, Fluo-4 calcium (AID 434942); format: functional;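 also: potency of inhibitors blocking the TRPC4 calcium response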
T3 sequence (Q9QUQ5 whole entry): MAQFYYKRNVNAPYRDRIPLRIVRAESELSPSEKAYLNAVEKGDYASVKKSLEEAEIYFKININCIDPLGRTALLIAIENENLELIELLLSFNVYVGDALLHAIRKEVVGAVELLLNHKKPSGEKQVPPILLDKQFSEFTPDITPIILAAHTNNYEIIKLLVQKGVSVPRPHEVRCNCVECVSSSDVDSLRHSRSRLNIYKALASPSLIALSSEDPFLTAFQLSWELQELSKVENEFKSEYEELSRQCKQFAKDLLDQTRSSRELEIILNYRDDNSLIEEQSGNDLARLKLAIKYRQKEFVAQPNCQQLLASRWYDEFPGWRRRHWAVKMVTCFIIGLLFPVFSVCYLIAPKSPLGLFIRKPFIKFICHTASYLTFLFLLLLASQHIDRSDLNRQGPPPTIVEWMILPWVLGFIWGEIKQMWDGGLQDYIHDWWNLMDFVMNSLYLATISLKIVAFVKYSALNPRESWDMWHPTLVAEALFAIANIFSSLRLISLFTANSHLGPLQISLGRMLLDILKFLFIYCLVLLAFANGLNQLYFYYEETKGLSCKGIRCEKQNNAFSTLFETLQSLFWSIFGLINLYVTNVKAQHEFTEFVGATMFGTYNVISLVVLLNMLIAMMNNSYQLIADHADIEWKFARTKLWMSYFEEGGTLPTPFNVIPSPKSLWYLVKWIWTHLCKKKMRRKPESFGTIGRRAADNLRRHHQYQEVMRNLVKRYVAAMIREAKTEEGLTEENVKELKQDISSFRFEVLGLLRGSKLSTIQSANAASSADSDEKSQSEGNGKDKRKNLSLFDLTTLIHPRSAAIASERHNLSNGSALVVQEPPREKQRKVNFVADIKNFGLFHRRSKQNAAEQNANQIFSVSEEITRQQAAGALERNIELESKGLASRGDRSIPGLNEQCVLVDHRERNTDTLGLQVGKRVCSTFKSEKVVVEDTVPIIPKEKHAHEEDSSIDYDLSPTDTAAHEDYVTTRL

INS1 = test: beta cell apoptosis inhibitors, cytokine rescue, dose response, luminescence, retest (AID 449756); format: functional, cell-based; details: Rattus norvegicus;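 also: cell death triggered by IL-1 beta plus TNF-alpha plus IFN-gamma mixture; protective hits raise ATP signal compared with cytokine alone wells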
Streptococcus = test: Group A Streptococcus viability loss, dose response, counter-screen for streptokinase expression inhibitor project, luminescence, BacTiterGlo (AID 1915); format: functional, organism-based;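 also: potency for reduction of bacterial viability or growth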
[8] = system: Streptococcus sp. 'group A'; test: growth inhibition of control SK(-) GAS strain, dose response, counter-screen for streptokinase expression inhibitor project, luminescence, kanamycin, BacTiterGlo, confirmation (AID 1900); format: functional, organism-based
Beta-galactosidase = Beta-galactosidase (Escherichia coli, UniProt Q8VNN2); test: beta-galactosidase enzyme inhibitors and activators, dose response, artefact control for CCR6 antagonist project, biochemical, E. coli enzyme, set 3 (AID 504712); format: functional
Chain of Beta-galactosidase (Q8VNN2 whole entry): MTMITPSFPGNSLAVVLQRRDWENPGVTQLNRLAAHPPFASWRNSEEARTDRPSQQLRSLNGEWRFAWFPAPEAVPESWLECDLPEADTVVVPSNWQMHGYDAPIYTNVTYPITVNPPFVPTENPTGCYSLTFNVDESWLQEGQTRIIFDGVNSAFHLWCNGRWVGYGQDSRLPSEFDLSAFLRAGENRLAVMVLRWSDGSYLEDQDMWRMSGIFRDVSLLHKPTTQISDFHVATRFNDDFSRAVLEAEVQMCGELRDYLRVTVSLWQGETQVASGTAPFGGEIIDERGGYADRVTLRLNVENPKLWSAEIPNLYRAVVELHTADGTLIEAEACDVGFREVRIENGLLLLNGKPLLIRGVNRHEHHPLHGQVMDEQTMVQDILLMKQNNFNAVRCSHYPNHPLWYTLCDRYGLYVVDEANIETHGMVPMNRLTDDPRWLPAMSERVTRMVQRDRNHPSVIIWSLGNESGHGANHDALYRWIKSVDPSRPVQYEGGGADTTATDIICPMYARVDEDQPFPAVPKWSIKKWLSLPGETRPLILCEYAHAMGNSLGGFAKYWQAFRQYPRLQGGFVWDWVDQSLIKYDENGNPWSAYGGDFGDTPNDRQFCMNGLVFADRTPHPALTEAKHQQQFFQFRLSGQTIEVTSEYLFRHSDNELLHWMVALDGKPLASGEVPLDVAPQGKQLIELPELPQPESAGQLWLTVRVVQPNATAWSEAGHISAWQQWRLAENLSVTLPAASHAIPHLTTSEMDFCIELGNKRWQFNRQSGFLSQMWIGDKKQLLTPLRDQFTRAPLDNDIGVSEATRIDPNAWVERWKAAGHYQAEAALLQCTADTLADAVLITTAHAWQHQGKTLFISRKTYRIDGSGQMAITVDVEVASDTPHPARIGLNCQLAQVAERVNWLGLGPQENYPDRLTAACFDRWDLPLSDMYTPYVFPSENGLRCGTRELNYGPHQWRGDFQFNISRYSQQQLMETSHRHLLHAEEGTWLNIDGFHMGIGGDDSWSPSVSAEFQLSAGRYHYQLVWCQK

[9] = target: C-C chemokine receptor type 6 (Homo sapiens, UniProt P51684); test: CCR6 receptor antagonists, dose response, cell-based, luminescent beta-arrestin readout (AID 504728); format: functional

Cc1c(C(=O)NC2=NCCS2)oc2ccccc12
EC50 [1]: 2.67 µM (active)
EC50 (HT-1080): > 50 µM (not active)

CCc1ccccc1NC(=O)CCCOc1cc(=O)n(C)c2ccccc12
EC50 (Wee1-like protein kinase): > 49.7 µM (inactive)
EC50 [2]: > 49.7 µM (inactive)

Cc1ccc(C2CN(C)C3(C(=O)Nc4ccccc43)C23COc2ccccc2C3=O)cc1 (stereo not drawn)
CC50 [3]: > 40 µM (active)
Absolute IC50 (XBP1) (X-box-binding protein 1): 10 µM

N=c1ccn(Cc2ccc(Cl)cc2)cc1
AC50 (HeLa): 16.4 µM (active)

COc1ccc(CNC(=O)CCOC(=O)c2cc(-c3ccco3)nc3ccccc23)cc1
IC50 [4]: 20.8 µM (active)
IC50 (SUMO E1/E2): 29.6 µM (active)
IC50 [5]: 14.4 µM (active)

O=C(c1ccc2c(c1)OCO2)C1CCCN(Cc2cc(F)ccc2-n2cccn2)C1 (stereo not drawn)
EC50 [6]: > 53 µM (inactive)
EC50 [7]: 5.96 µM (active)

COc1cc(-c2nc3c(c(C)nn3-c3ccccc3)c3cc(OC)c(OC)cc23)ccc1O
Absolute IC50 (XBP1) (X-box-binding protein 1): 10 µM

CN(C)c1nc(N/N=C/c2ccccc2O)nc(Nc2ccc(F)cc2)n1
AC50 (INS1): 3.59 µM (active)
EC50 (Streptococcus): 5.81 µM (active)
EC50 [8]: 3.62 µM (active)
IC50 (Beta-galactosidase): > 66.6 µM (inactive)
IC50 [9]: > 66.6 µM (inactive)
